Consider 35 compounds from ChEMBL document CHEMBL4619786, “Discovery of Novel Resorcinol Dibenzyl Ethers Targeting the Programmed Cell Death-1/Programmed Cell Death-Ligand 1 Interaction as Potential Anticancer Agents” (J Med Chem, 2020).

Values after ≈ are worked out from the molar mass of the structure shown.

The target of series [1] is T1, Programmed cell death protein 1/Programmed cell death 1 ligand 1 (Homo sapiens, UniProt Q9NZQ7). The series is described as follows: Inhibition of human Fc-tagged PD1 N-terminal domain (Leu25 to Gln167 residues) expressed in HEK293 cells/human His-tagged PDL1 (Phe19 to Arg238 residues) expressed in HEK293 cells protein-protein interaction after 40 mins by APC-labeled anti-His antibody/Eu-labeled anti-human IgG based HTRF assay. The format is cell-based. Background: Time-resolved FRET reads energy transfer from a long-lived donor to a nearby acceptor.

The target in series [2] is T1, Programmed cell death protein 1/Programmed cell death 1 ligand 1. The series is described as follows: Inhibition of human PD1/PDL1 protein-protein interaction by HTRF assay. In kind it is protein-complex assay.
The subject of a further series is MCF7. The series is described as follows: Cytotoxicity against human MCF7 cells assessed as reduction in cell viability measured after 48 hrs by MTT assay. In kind it is functional, cell-based. Conditions: MCF7, 48 h. (Tetrazolium dyes change colour on reduction, which living cells bring about.)
The subject of a further series is A549. The series can be described thus: Cytotoxicity against human A549 cells assessed as reduction in cell viability measured after 48 hrs by MTT assay. In kind it is functional, cell-based. The following applies: A549, 48 h.
The test system of the next series is B16-F10. The series is described as follows: Cytotoxicity against mouse B16/F10 cells assessed as reduction in cell viability measured after 48 hrs by MTT assay. Conditions: B16-F10, 48 h. In kind it is functional, cell-based.
Series [3] has as its target T1, Programmed cell death protein 1/Programmed cell death 1 ligand 1. The series can be described thus: Inhibition of human C-terminal Ig-Fc-tagged PD1 (Leu25 to Gln167 residues) expressed in HEK293 cells/human C-terminal epitope-His-tagged PDL1 (Phe19 to Arg238 residues) expressed in HEK293 cells protein-protein interaction preincubated for 15 mins with PDL1 followed by PD1 addition and measured after 15 mins by APC-labeled anti-His antibody/Eu-labeled anti-human IgG based HTRF assay. The format is cell-based.

Series [4] is described as follows: Solubility of the compound in water. The format is physicochemical.

T1 sequence (Q15116 whole entry, the tested form may be a part): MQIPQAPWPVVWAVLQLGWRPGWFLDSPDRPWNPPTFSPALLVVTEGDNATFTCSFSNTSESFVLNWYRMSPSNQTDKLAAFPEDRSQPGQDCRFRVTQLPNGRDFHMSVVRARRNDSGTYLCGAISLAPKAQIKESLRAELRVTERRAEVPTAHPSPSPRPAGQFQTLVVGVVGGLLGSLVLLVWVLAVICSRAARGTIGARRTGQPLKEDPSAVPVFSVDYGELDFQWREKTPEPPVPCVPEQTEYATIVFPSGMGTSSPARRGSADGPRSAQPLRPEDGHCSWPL
T1 sequence (Q9NZQ7 whole entry, the tested form may be a part): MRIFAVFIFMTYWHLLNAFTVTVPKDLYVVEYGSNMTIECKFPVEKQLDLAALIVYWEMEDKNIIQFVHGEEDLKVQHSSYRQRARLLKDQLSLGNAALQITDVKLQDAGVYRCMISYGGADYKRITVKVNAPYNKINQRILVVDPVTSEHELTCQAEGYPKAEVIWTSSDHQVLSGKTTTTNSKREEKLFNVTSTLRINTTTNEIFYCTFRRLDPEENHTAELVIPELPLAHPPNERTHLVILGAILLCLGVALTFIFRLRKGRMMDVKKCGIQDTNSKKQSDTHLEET

As a reminder, the IC50 is the concentration needed to halve the response being measured. The compound `Cc1c(Nc2cccc3cc(CNCCO)cnc23)cccc1-c1ccccc1` showed an IC50 in series [1] of less than 0.01 µM.

Turning to `Cc1c(COc2cc(OCc3cccc(C#N)c3)c(CN3CCC(O)C3)cc2Cl)cccc1-c1ccc2c(c1)OCCO2` (stereo not given), the IC50 is 0.0129 µM in series [2], 4.4 µM in the series on MCF7, 4.2 µM in the series with A549 and 2.3 µM in the series on B16-F10.

Compound `Cc1c(COc2cc(OCc3ccnc(C#N)c3)c(CNC(C)(C)C(=O)O)cc2Cl)cccc1-c1ccc2ocnc2c1` returned an IC50 in series [3] of 0.01 µM.

Regarding `Cc1c(COc2ccc3cc(CNCCO)ccc3c2)cccc1-c1ccccc1`, the IC50 in series [2] and in series [1] was more than 10 µM in each case.

Usually solubility stands for the dissolved amount per volume that the medium holds. A lower solubility goes with a poorly soluble substance. `O=C(NC(Cc1cc(=O)[nH]c2ccccc12)C(=O)O)c1ccc(Cl)cc1` (stereo not given) [REBAMIPIDE] returned a solubility in series [4] of 7.6 µg/mL (≈ 20.5 µM).

Turning to `Cc1c(COc2cc(OCc3cccc(C#N)c3)c(CNC(C)(C)C(=O)O)cc2Cl)cccc1-c1ccncc1`, the IC50 in series [2] and in series [3] was more than 0.1 µM each time.

On to `Cc1c(COc2cc(OCc3cccc(C#N)c3)c(CN3CC[C@H](C(=O)O)C3)cc2Cl)cccc1-c1ccc2c(c1)OCCO2`, for which the IC50 in series [2] was 0.0079 µM; with MCF7, more than 10 µM; with A549 it was more than 10 µM; in series [3], 0.0079 µM; in the series with B16-F10, 10.8 µM.

Compound `Cc1c(COc2cc(OCc3cccc(C#N)c3)c(CN3C[C@@H](O)C[C@@H]3CO)cc2Cl)cccc1-c1ccccc1` returned an IC50 in series [2] of 0.01 to 0.1 µM.

In series [2], `CC(=O)N1CCN(Cc2ccc3oc(-c4cccc(-c5ccccc5)c4C)cc(=O)c3c2)CC1` showed an IC50 of more than 10 µM.

In series [2], `Cc1c(COc2cc(OCc3cccc(C#N)c3)c(CN3CCC(O)C3)cc2Cl)cccc1-c1ccccc1` (stereo not given) showed an IC50 of 0.01 to 0.1 µM.

For the compound `Cc1c(COc2cc(OCc3cccc(C#N)c3)c(CN3C[C@@H](O)C[C@@H]3CO)cc2Cl)cccc1-c1ccc2c(c1)OCCO2`, the IC50 in series [2] was found to be 0.0111 µM; in the series on MCF7 it was 6.6 µM; in the series on A549 it was 4.6 µM; in the series with B16-F10, 2.4 µM.

As for `Cc1c(COc2cc(OCc3cccc(C#N)c3)c(CN3CCCC[C@H]3C(=O)O)cc2Cl)cccc1-c1cccnc1`, the IC50 in series [2] was more than 0.1 µM.

`Cc1c(COc2cc(OCc3cccc(C#N)c3)c(CN3C[C@H](O)[C@@H](F)C3)cc2Cl)cccc1-c1ccccc1` had an IC50 in series [2] of more than 0.1 µM.

As for `Cc1c(COc2cc(OCc3cccc(C#N)c3)c(CN3CC[C@@H](O)C3)cc2Cl)cccc1-c1ccccc1`, in series [2], the IC50 was in the range of 0.01 to 0.1 µM.

In series [2], `Cc1c(COc2cc(OCc3cccc(C#N)c3)c(CN3CC(C(=O)O)C3)cc2Cl)cccc1-c1ccccc1` came in with an IC50 of 0.0312 µM.

Turning to `Cc1c(COc2cc(OCc3cccc(C#N)c3)c(CN3CC(C)(O)C3)cc2Cl)cccc1-c1ccccc1`, the IC50 in series [2] was more than 0.1 µM.

Regarding `Cc1c(-c2ccccc2)cccc1-c1cc(=O)c2cc(CN3CCN(CC4CC4)CC3)ccc2o1`, in series [2], the IC50 was more than 10 µM.

On to `Cc1c(-c2ccccc2)cccc1-c1cc(=O)c2cc(CN3CCNCC3)ccc2o1`, for which the IC50 in series [2] is more than 10 µM.

On to `c1cc2c(cc1[C@H]1OC[C@H]3[C@@H]1CO[C@@H]3c1ccc3c(c1)OCO3)OCO2` [SESAMIN], for which, in series [2], the IC50 was more than 100 µM.

Take `Cc1c(COc2cc(OCc3cccc(C#N)c3)c(CN3C[C@H](O)[C@@H](F)C3)cc2Cl)cccc1-c1ccc2c(c1)OCCO2`: in series [2], the IC50 was more than 0.1 µM.

As for `Cc1c(/C=C/C(=O)c2cc(CN3CCN(C4CC4)CC3)ccc2O)cccc1-c1ccccc1`, the IC50 in series [2] was more than 20 µM.

As for `COc1cc(NC(=O)c2cccc(-c3ccccc3)c2C)ccc1CN1CCN(C(C)=O)CC1`, the IC50 in series [1] was more than 10 µM.

For the compound `CC(=O)NCCNCc1ccc(O)c(C(=O)/C=C/c2cccc(-c3ccccc3)c2C)c1`, in series [2], the IC50 is 5.3 µM.

Consider `Cc1c(COc2cc(OCc3cccc(C#N)c3)c(CNCCO)cc2Cl)cccc1-c1ccncc1`, for which the IC50 in series [2] is more than 0.1 µM.

In series [2], `Cc1c(COc2cc(OCc3cccc(C#N)c3)c(CN3CC[C@H](O)C3)cc2Cl)cccc1-c1ccc2c(c1)OCCO2` had an IC50 of 0.0275 µM.

Take `Cc1c(COc2cc(OCc3cccc(C#N)c3)c(CN[C@H](CO)C(=O)O)cc2Cl)cccc1-c1ccccc1`: the IC50 in series [2] is 0.008 µM; in the series with MCF7 it was more than 10 µM; in the series with A549 it was more than 10 µM; in the series with B16-F10, more than 10 µM.

`CCN1CCN(Cc2cc(Cl)c(OCc3cccc(-c4ccc5c(c4)OCCO5)c3C)cc2OCc2cccc(C#N)c2)CC1`: in series [2], the IC50 stood at 0.711 µM.

The compound `Cc1c(/C=C/C(=O)c2cc(CN3CCNCC3)ccc2O)cccc1-c1ccccc1` came in with an IC50 in series [2] of more than 20 µM.

On to `Cc1c(COc2cc(OCc3cccc(C#N)c3)c(CNCCN)cc2Cl)cccc1-c1ccc2c(c1)OCCO2`, for which the IC50 in series [2] is more than 0.1 µM.

Consider `Cc1c(COc2cc(OCc3cccc(C#N)c3)c(CN3CCN(C4CC4)CC3)cc2Cl)cccc1-c1ccc2c(c1)OCCO2`, for which it took 0.409 µM to reach half-maximal inhibition in series [2] (IC50).

`Cc1c(COc2cc(OCc3cccc(C#N)c3)c(CN3CC(O)C(CO)C3)cc2Cl)cccc1-c1ccc2c(c1)OCCO2` (stereo not given): the midpoint of inhibition in series [2], the IC50, lay at 0.0167 µM.

`Cc1c(COc2ccc3cc(CN4C[C@@H](O)C[C@H]4C(=O)O)ccc3c2)cccc1-c1ccccc1` showed an IC50 in series [2] of more than 10 µM.

On to `CC(=O)N1CCN(Cc2ccc3oc(-c4cccc(-c5ccccc5)c4F)cc(=O)c3c2)CC1`, for which, in series [2], the IC50 was more than 10 µM.

As for `Cc1c(COc2cc(OCc3cccc(C#N)c3)c(CN3CC[C@@H](O)C3)cc2Cl)cccc1-c1ccc2c(c1)OCCO2`, the IC50 in series [2] was 0.0149 µM.

With `Cc1c(COc2cc(OCc3cccc(C#N)c3)c(CN3CC[C@@H](C(=O)O)C3)cc2Cl)cccc1-c1ccc2c(c1)OCCO2`, in series [2], half-maximal inhibition (IC50) was put at 0.0152 µM.
